Data from ChEMBL document CHEMBL6153050, “Repurposing FDA-approved drugs to target G-quadruplexes in breast cancer” (Eur J Med Chem, 2025).

Tests used:
Conditions in all cases: time 10.0 min
Quadruplex RNA [1] = system: Quadruplex RNA
Quadruplex DNA [2] = system: Quadruplex DNA
Quadruplex DNA [3] = system: Quadruplex DNA; remark: listed apart in the source
Quadruplex DNA [4] = system: Quadruplex DNA; remark: listed apart in the source
Quadruplex RNA [5] = system: Quadruplex RNA; remark: listed apart in the source
Quadruplex DNA [6] = system: Quadruplex DNA; remark: listed apart in the source

Row | deltaTm1/2 (Quadruplex RNA [1]) [°C] | deltaTm1/2 (Quadruplex DNA [2]) [°C] | deltaTm1/2 (Quadruplex DNA [3]) [°C] | deltaTm1/2 (Quadruplex DNA [4]) [°C] | deltaTm1/2 (Quadruplex RNA [5]) [°C] | deltaTm1/2 (Quadruplex DNA [6]) [°C] | Compound
1 | 7.5 | 4.4 | 9.4 | 9.5 | 3.5 | 3.9 | COc1cc(O)c(C(=O)Nc2nc(C(=O)NCCN(C(C)C)C(C)C)cs2)cc1OC
2 | 8.1 | 4 | 5.3 | 10.6 | 1.1 | 1.5 | COc1ccc(-c2cc(=O)c3c(OC)c(OC)c(OC)cc3o2)cc1OC
3 | 1.9 | 5.4 | -0.9 | 3.1 | 0.4 | -0.1 | Cc1cc2ncc(C(=O)NCC(C)(C)NCC(=O)N3CCC[C@H]3C#N)cn2n1
4 | 1 | 1 | 2.3 | 3 | 1.2 | 1.2 | Cn1nnc(-c2ccc(-c3ccc(N4C[C@H](CO)OC4=O)cc3F)cn2)n1
